Test results reported in the NIST ThermoML archive (doi:10.1016/j.jct.2012.11.011).

Test: xn = mol fraction of the nth substance listed
Details: Liquid, Vibrating tube method

CCCCCCCCCC [decane] + COC(=O)OC
mass density [kg/m3]
Details | x2 = 0.0438 | x2 = 0.11 | x2 = 0.2348 | x2 = 0.3516 | x2 = 0.3944 | x2 = 0.557 | x2 = 0.8035 | x2 = 0.95
288.15 K, 100 kPa | 739 | 749 | 769.2 | 792 | 801.9 | 844.5 | 944.4 | 1034.2
288.15 K, 5000 kPa | 742.7 | 753.6 | 773.1 | 796 | 805.9 | 848.7 | 948.8 | 1038.5
288.15 K, 10000 kPa | 746.2 | 757.2 | 776.8 | 799.9 | 809.8 | 852.6 | 953.1 | 1042.8
288.15 K, 20000 kPa | 752.7 | 763.9 | 783.7 | 807 | 817 | 858.8 | 963.1 | 1050.8
288.15 K, 30000 kPa | 758.8 | 769.8 | 790 | 813.4 | 823.5 | 865 | 971.2 | 1058.2
288.15 K, 40000 kPa | 764.3 | 775.8 | 796.1 | 819.7 | 829.3 | 872.6 | 977.8 | 1065.3
298.15 K, 100 kPa | 731.3 | 741.9 | 760.8 | 783.2 | 793.3 | 831.4 | 932.1 | 1021.4
298.15 K, 5000 kPa | 735.6 | 746.2 | 765.5 | 787.9 | 798 | 836.7 | 937.6 | 1026.5
298.15 K, 10000 kPa | 739 | 749.7 | 769 | 791.4 | 801.8 | 840.5 | 942.1 | 1030.7
298.15 K, 20000 kPa | 745.9 | 756.6 | 776.2 | 799 | 809.4 | 848.3 | 951.1 | 1039
298.15 K, 30000 kPa | 752.2 | 763.1 | 782.9 | 805.9 | 816.6 | 856.1 | 959.2 | 1047
298.15 K, 40000 kPa | 758.1 | 769 | 789 | 812.2 | 823 | 863.2 | 966.8 | 1054.4
308.15 K, 100 kPa | 723.6 | 733.9 | 752.5 | 774.3 | 783.8 | 820.2 | 920.7 | 1008.8
308.15 K, 5000 kPa | 727.7 | 738.2 | 756.9 | 778.9 | 788.5 | 825.6 | 926.3 | 1013.8
308.15 K, 10000 kPa | 731.7 | 742.2 | 761 | 783.2 | 792.8 | 830.8 | 931.6 | 1018.5
308.15 K, 20000 kPa | 739 | 749.7 | 768.6 | 790.9 | 801.1 | 840 | 941.1 | 1027.6
308.15 K, 30000 kPa | 745.6 | 756.4 | 775.6 | 798.3 | 808.4 | 848.4 | 949.7 | 1035.9
308.15 K, 40000 kPa | 751.8 | 762.6 | 782.1 | 804.9 | 815.3 | 856.1 | 957.8 | 1043.7
